The target in one data set is T1, CstA (CstA-6His) (Escherichia coli, UniProt P15078).
T1 construct: full-length, 701 residues, 6His tag, from plasmid pBAD24-cstA6H (uninduced) in intact E. coli MG1655 ΔbtsT ΔcstA ΔyhjX cells; inner membrane protein, TC# 2.A.114
As to the kind of experiment: competition with […]pyruvate uptake into intact cells, rapid filtration. The format is cell-based. The note with it: 1 mM competitor against 10 µM [14C]pyruvate; Tris/MES pH 7.5, 5 mM MgCl2, 15 °C; competitor for the pyruvate site.

Substrate in data set [1]: CC(=O)C(=O)O
Briefly: cells, lysate or membranes. The format is cell-based, Escherichia coli. The note with it: labelled compound, intact cells of 3Δ mutant with p-cstA, Tris/MES pH 7.5, 5 mM MgCl2, 15 °C, background of 3Δ mutant subtracted, proton-gradient driven.

Results on two molecules are retold here after publication PMC7730263, “Function and Regulation of the Pyruvate Transporter CstA in Escherichia coli” (International Journal of Molecular Sciences, 2020).

With `O=C(O)C(=O)CBr` [Br-pyruvate], the “competition with [14C]pyruvate uptake into intact cells, rapid filtration” value at CstA (CstA-6His) is “Only pyruvate itself or Br-pyruvate (a synthetic analogue) were found to act as competitors”.

B1: CstA (CstA-6His) (Escherichia coli K-12) (protein)
chain: MNKSGKYLVWTVLSVMGAFALGYIALNRGEQINALWIVVASVCIYLIAYRFYGLYIAKNVLAVDPTRMTPAVRHNDGLDYVPTDKKVLFGHHFAAIAGAGPLVGPVLAAQMGYLPGMIWLLAGVVLAGAVQDFMVLFVSTRRDGRSLGELVKEEMGPTAGVIALVACFMIMVIILAVLAMIVVKALTHSPWGTYTVAFTIPLALFMGIYLRYLRPGRIGEVSVIGLVFLIFAIISGGWVAESPTWAPYFDFTGVQLTWMLVGYGFVAAVLPVWLLLAPRDYLSTFLKIGTIVGLAVGILIMRPTLTMPALTKFVDGTGPVWTGNLFPFLFITIACGAVSGFHALISSGTTPKMLANEGQACFIGYGGMLMESFVAIMALVSACIIDPGVYFAMNSPMAVLAPAGTADVVASAAQVVSSWGFSITPDTLNQIASEVGEQSIISRAGGAPTLAVGMAYILHGALGGMMDVAFWYHFAILFEALFILTAVDAGTRAARFMLQDLLGVVSPGLKRTDSLPANLLATALCVLAWGYFLHQGVVDPLGGINTLWPLFGIANQMLAGMALMLCAVVLFKMKRQRYAWVALVPTAWLLICTLTAGWQKAFSPDAKVGFLAIANKFQAMIDSGNIPSQYTESQLAQLVFNNRLDAGLTIFFMVVVVVLALFSIKTALAALKDPKPTAKETPYEPMPENVEEIVAQAKGAH
notes: full-length, 701 residues, 6His tag, from plasmid pBAD24-cstA6H (uninduced) in intact E. coli MG1655 ΔbtsT ΔcstA ΔyhjX cells; inner membrane protein, TC# 2.A.114
For the molecule B1, the Km in data set [1] came out at 242 µM.

One may read the Km as the substrate concentration at which the rate is half of its maximum.
